Patent US7687643B2, “Process for preparing 3,3-dimethylindolines” (Amgen Inc., priority 2001, dated 2010)

Test system: Human Umbilical Vein Endothelial cells (VEGF-stimulated)
Assay: HUVEC proliferation assay, VEGF-stimulated
Format: cell-based
Details: VEGF 50 ng/mL, 72 h, CyQuant, read-out: inhibited VEGF-stimulated HUVEC proliferation at a level
Method in brief: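 Pooled-donor HUVECs (passage 2–3) seeded in DMEM+10% FBS for 22 h, then pre-treated 2–3 h with five-point, five-fold compound dilutions (0.25% DMSO final). Stimulated with 50 ng/mL VEGF (bFGF 20 ng/mL on separate plates) for 72 h at 37 °C. CyQuant fluorescence (485/530 nm) after freeze-thaw; IC50 from 4-parameter fit.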

Row | SMILES | IC50 [nM]
1 | CN1CCC(CCCOc2cc(CNc3ncccc3C(=O)Nc3cccc(C(F)(F)F)c3)ccn2)CC1 [Example 923, 2-({2-[3-(1-Methyl-piperidin-4-yl)-propoxy]-pyridin-4-ylmethyl}-amino)-N-(3-trifluoromethyl-phenyl)-nicotinamide] | < 50
2 | COc1cc(CNc2ncccc2C(=O)Nc2ccc3c(c2)CNCC32CC2)ccn1 [Example 1128, N-(4-Spiro-1′-cyclopropane-1,2,3,4-tetrahydroisoquinolin-7-yl)-2-[(2-methoxy-pyridin-4-ylmethyl)-amino]-nicotinamide] | < 50
3 | CC(C)c1ccc(NC(=O)c2cccnc2NCc2ccncc2)cc1 [Example 25, N-(4-Isopropylphenyl){2-[(4-pyridylmethyl)amino](3-pyridyl)}carboxamide] | < 50
4 | CC1(C)CNc2cc(NC(=O)c3cccnc3NCc3ccncn3)ccc21 [Example 1029, N-(3,3-Dimethyl-2,3-dihydro-1H-indol-6-yl)-2-((4-pyrimidinylmethyl)amino)-3-pyridinecarboxamide] | < 50
5 | CNc1nccc(CNc2ncccc2C(=O)Nc2ccc3c(c2)N(C(C)=O)CC3(C)C)n1 [Example 1045, N-(1-acetyl-3,3-dimethyl-2,3-dihydro-1H-indol-6-yl)-2-(((2-(methylamino)-4-pyrimidinyl)methyl)amino)-3-pyridinecarboxamide] | < 50
6 | CNc1nccc(CNc2ncccc2C(=O)Nc2cc(NS(C)(=O)=O)cc(C(F)(F)F)c2)n1 [Example 1093, 2-(((2-(methylamino)-4-pyrimidinyl)methyl)amino)-N-(3-((methylsulfonyl)amino)-5-(trifluoromethyl)phenyl)-3-pyridinecarboxamide] | < 50
7 | CNc1nccc(CNc2ncccc2C(=O)Nc2ccc(C(C)(C)C3CCN(C)CC3)cc2)n1 [Example 1043, 2-(((2-(methylamino)-4-pyrimidinyl)methyl)amino)-N-(4-(1-methyl-1-(1-methyl-4-piperidinyl)ethyl)phenyl)-3-pyridinecarboxamide] | < 50
8 | COc1cc(CNc2ncccc2C(=O)Nc2ccc3c(c2)NC(=O)CC3(C)C)ccn1 [Example 1116, N-(4,4-Dimethyl-2-oxo-1,2,3,4-tetrahydro-quinolin-7-yl)-2-[(2-methoxy-pyridin-4-ylmethyl)-amino]-nicotinamide] | < 50
9 | CC(C)(C)c1ccc(NC(=O)c2cccnc2NCc2ccc3c(c2)CCO3)cc1 [Example 826, N-[4-(tert-Butyl)phenyl]{2-[(2,3-dihydrobenzo[b]furan-5-ylmethyl)amino](3-pyridyl)}carboxamide] | < 50
10 | O=C(Nc1ccc(C(F)(F)C(F)(F)F)c(OC[C@@H](O)CN2CCCC2)c1)c1cccnc1NCc1ccncc1 [Example 952, (S) N-[3-(2-Hydroxy-3-pyrrolidin-1-yl-propoxy)-4-pentafluoroethyl-phenyl]-2-[(pyridin-4-ylmethyl)-amino]-nicotinamide] | < 50
11 | CNc1nccc(CNc2ncccc2C(=O)Nc2cc(OCCNS(C)(=O)=O)cc(C(F)(F)F)c2)n1 [Example 1091, 2-(((2-(methylamino)-4-pyrimidinyl)methyl)amino)-N-(3-((2-((methylsulfonyl)amino)ethyl)oxy)-5-(trifluoromethyl)phenyl)-3-pyridinecarboxamide] | < 50
12 | CN(C)CCOCCOc1cc(CNc2ncccc2C(=O)Nc2ccc(C(C)(C)C)cc2)ccn1 [Example 151, (2-{[(2-{2-[2-(Dimethylamino)ethoxy]ethoxy}(4-pyridyl))methyl]amino}(3-pyridyl))-N-[4-(tert-butyl)phenyl]carboxamide] | < 50
13 | CN1CCC(CCCOc2cc(CNc3ncccc3C(=O)Nc3ccc(C(C)(C)C)cc3)ccn2)CC1 [Example 924, 2-({2-[3-(1-Methyl-piperidin-4-yl)-propoxy]-pyridin-4-ylmethyl}-amino)-N-(4-tert-butyl-phenyl)-nicotinamide] | < 50
14 | CC(=O)N1CC(C)(C)c2ccc(NC(=O)c3cccnc3NCc3ccncn3)cc21 [Example 1022, N-(1-Acetyl-3,3-dimethyl-2,3-dihydro-1H-indol-6-yl)-2-((4-pyrimidinylmethyl)amino)-3-pyridinecarboxamide] | < 50
15 | CC(C)(C)c1ccc(NC(=O)c2cccnc2NCc2ccnc(Cl)c2)cc1 [Example 138, N-[4-(tert-Butyl)phenyl](2-{[(2-chloro(4-pyridyl))methyl]amino}(3-pyridyl))carboxamide] | < 50
16 | CNc1nccc(CNc2ncccc2C(=O)Nc2ccc3c(c2)NCCC3(C)C)n1 [Example 1112, N-(4,4-Dimethyl-1,2,3,4-tetrahydro-quinolin-7-yl)-2-[(2-methylamino-pyrimidin-4-ylmethyl)-amino]-nicotinamide] | < 50
17 | CNc1nccc(CNc2ncccc2C(=O)Nc2cc(O[C@@H]3CCOC3)cc(C(F)(F)F)c2)n1 [Example 1084, 2-(((2-(methylamino)-4-pyrimidinyl)methyl)amino)-N-(3-((3R)-tetrahydro-3-furanyloxy)-5-(trifluoromethyl)phenyl)-3-pyridinecarboxamide] | < 50
